From ChEMBL document CHEMBL3046208, “Natural and synthetic podolactones with potential use as natural herbicide models” (2000)
The source made the active and inactive calls. The calls are words filed in the database; no cut-off is given here.

Experiments:
Assay type in all cases: functional
[1] = system: Allium cepa; assay: Stimulation of shoot length of Allium cepa (onion) at 0.1 mM after 5 days relative to untreated control
[2] = system: Lactuca sativa; assay: Inhibition of germination of Lactuca sativa cv. Nigra (lettuce) at 0.1 mM after 5 days relative to untreated control; conditions: for inhibition at 100 µM: 120 h
[3] = system: Solanum lycopersicum; assay: Inhibition of root length of Solanum lycopersicum (tomato) at 0.1 mM after 5 days relative to untreated control; conditions: for inhibition at 100 µM: 120 h
[4] = system: Triticum aestivum; assay: Inhibition of root length of Triticum aestivum (wheat) at 0.1 mM after 5 days relative to untreated control; conditions: for inhibition at 100 µM: 120 h
[5] = system: Triticum aestivum; assay: Stimulation of germination of Triticum aestivum (wheat) at 0.1 mM after 5 days relative to untreated control
[6] = system: Triticum aestivum; assay: Stimulation of shoot length of Triticum aestivum (wheat) at 0.1 mM after 5 days relative to untreated control
[7] = system: Lepidium sativum; assay: Stimulation of root length of Lepidium sativum at 0.1 mM after 5 days relative to untreated control
[8] = system: Triticum aestivum; assay: Inhibition of shoot length of Triticum aestivum (wheat) at 0.1 mM after 5 days relative to untreated control
[9] = system: Solanum lycopersicum; assay: Inhibition of shoot length of Solanum lycopersicum (tomato) at 0.1 mM after 5 days relative to untreated control; conditions: for inhibition at 100 µM: 120 h
[10] = system: Allium cepa; assay: Stimulation of root length of Allium cepa (onion) at 0.1 mM after 5 days relative to untreated control
[11] = system: Hordeum vulgare; assay: Stimulation of germination of Hordeum vulgare (barley) at 0.1 mM after 5 days relative to untreated control
[12] = system: Solanum lycopersicum; assay: Stimulation of root length of Solanum lycopersicum (tomato) at 0.1 mM after 5 days relative to untreated control
[13] = system: Hordeum vulgare; assay: Inhibition of germination of Hordeum vulgare (barley) at 0.1 mM after 5 days relative to untreated control; conditions: 120 h
[14] = system: Solanum lycopersicum; assay: Stimulation of germination of Solanum lycopersicum (tomato) at 0.1 mM after 5 days relative to untreated control
[15] = system: Lactuca sativa; assay: Stimulation of germination of Lactuca sativa cv. Nigra (lettuce) at 0.1 mM after 5 days relative to untreated control
[16] = system: Hordeum vulgare; assay: Stimulation of root length of Hordeum vulgare (barley) at 0.1 mM after 5 days relative to untreated control
[17] = system: Lactuca sativa; assay: Inhibition of root length of Lactuca sativa cv. Nigra (lettuce) at 0.1 mM after 5 days relative to untreated control; conditions: for inhibition at 100 µM: 120 h
[18] = system: Triticum aestivum; assay: Stimulation of root length of Triticum aestivum (wheat) at 0.1 mM after 5 days relative to untreated control
[19] = system: Allium cepa; assay: Inhibition of root length of Allium cepa (onion) at 0.1 mM after 5 days relative to untreated control; conditions: for inhibition at 100 µM: 120 h
[20] = system: Lactuca sativa; assay: Inhibition of shoot length of Lactuca sativa cv. Roman (lettuce) at 0.1 mM after 5 days relative to untreated control; conditions: 120 h
[21] = system: Lactuca sativa; assay: Stimulation of root length of Lactuca sativa cv. Nigra (lettuce) at 0.1 mM after 5 days relative to untreated control
[22] = system: Lactuca sativa; assay: Inhibition of shoot length of Lactuca sativa cv. Nigra (lettuce) at 0.1 mM after 5 days relative to untreated control; conditions: for inhibition at 100 µM: 120 h
[23] = system: Solanum lycopersicum; assay: Inhibition of germination of Solanum lycopersicum (tomato) at 0.1 mM after 5 days relative to untreated control; conditions: for inhibition at 100 µM: 120 h
[24] = system: Solanum lycopersicum; assay: Stimulation of shoot length of Solanum lycopersicum (tomato) at 0.1 mM after 5 days relative to untreated control
[25] = system: Lepidium sativum; assay: Inhibition of germination of Lepidium sativum at 0.1 mM after 5 days relative to untreated control
[26] = system: Allium cepa; assay: Inhibition of shoot length of Allium cepa (onion) at 0.1 mM after 5 days relative to untreated control; conditions: 120 h
[27] = system: Lepidium sativum; assay: Inhibition of shoot length of Lepidium sativum at 0.1 mM after 5 days relative to untreated control; conditions: for inhibition at 100 µM: 120 h
[28] = system: Hordeum vulgare; assay: Inhibition of root length of Hordeum vulgare (barley) at 0.1 mM after 5 days relative to untreated control; conditions: 120 h
[29] = system: Allium cepa; assay: Inhibition of germination of Allium cepa (onion) at 0.1 mM after 5 days relative to untreated control; conditions: 120 h
[30] = system: Lepidium sativum; assay: Inhibition of root length of Lepidium sativum at 0.1 mM after 5 days relative to untreated control; conditions: for inhibition at 100 µM: 120 h
[31] = system: Triticum aestivum; assay: Inhibition of germination of Triticum aestivum (wheat) at 0.1 mM after 5 days relative to untreated control; conditions: for inhibition at 100 µM: 120 h
[32] = system: Lactuca sativa; assay: Stimulation of germination of Lactuca sativa cv. Roman (lettuce) at 0.1 mM after 5 days relative to untreated control
[33] = system: Lactuca sativa; assay: Stimulation of shoot length of Lactuca sativa cv. Nigra (lettuce) at 0.1 mM after 5 days relative to untreated control
[34] = system: Lactuca sativa; assay: Stimulation of shoot length of Lactuca sativa cv. Roman (lettuce) at 0.1 mM after 5 days relative to untreated control
[35] = system: Lepidium sativum; assay: Stimulation of shoot length of Lepidium sativum at 0.1 mM after 5 days relative to untreated control
[36] = system: Lactuca sativa; assay: Stimulation of root length of Lactuca sativa cv. Roman (lettuce) at 0.1 mM after 5 days relative to untreated control
[37] = system: Hordeum vulgare; assay: Inhibition of shoot length of Hordeum vulgare (barley) at 0.1 mM after 5 days relative to untreated control; conditions: for inhibition at 100 µM: 120 h
[38] = system: Lepidium sativum; assay: Stimulation of germination of Lepidium sativum at 0.1 mM after 5 days relative to untreated control
[39] = system: Hordeum vulgare; assay: Stimulation of shoot length of Hordeum vulgare (barley) at 0.1 mM after 5 days relative to untreated control
[40] = system: Lactuca sativa; assay: Inhibition of germination of Lactuca sativa cv. Roman (lettuce) at 0.1 mM after 5 days relative to untreated control; conditions: 120 h
[41] = system: Allium cepa; assay: Stimulation of germination of Allium cepa (onion) at 0.1 mM after 5 days relative to untreated control
[42] = system: Lactuca sativa; assay: Inhibition of root length of Lactuca sativa cv. Roman (lettuce) at 0.1 mM after 5 days relative to untreated control; conditions: for inhibition at 100 µM: 120 h

COC(=O)[C@@]1(C)CCC[C@]2(C)C3=CC(=O)OC[C@]34O[C@@H]4C[C@@H]12
Activity [1]: <20%
inhibition [2]: inactive
inhibition at 100 µM [3]: < 20%
inhibition at 100 µM [4]: 20%
Activity [5]: inactive
Activity [6]: inactive
Activity [7]: inactive
inhibition [8]: inactive
inhibition at 100 µM [9]: 20%
Activity [10]: <20%
Activity [11]: 20%
Activity [12]: <20%
inhibition at 100 µM [13]: 20%
Activity [14]: 20%
Activity [15]: inactive
Activity [16]: 20%
inhibition [17]: inactive
Activity [18]: 20%
inhibition at 100 µM [19]: < 20%
inhibition at 100 µM [20]: < 20%
Activity [21]: inactive
inhibition [22]: inactive
inhibition at 100 µM [23]: 20%
Activity [24]: 20%
inhibition [25]: inactive
inhibition at 100 µM [26]: < 20%
inhibition [27]: inactive
inhibition at 100 µM [28]: 20%
inhibition at 100 µM [29]: < 20%
inhibition [30]: inactive
inhibition [31]: inactive
Activity [32]: <20%
Activity [33]: inactive
Activity [34]: <20%
Activity [35]: inactive
Activity [36]: inactive
inhibition at 100 µM [37]: < 20%
Activity [38]: inactive
Activity [39]: <20%
inhibition at 100 µM [40]: < 20%
Activity [41]: <20%
inhibition [42]: inactive

COC(=O)[C@@]1(C)CCC[C@]2(C)C3=CC(=O)O[C@H](C(C)C)C3=CC[C@@H]12
Activity [1]: 20%
inhibition at 100 µM [2]: < 20%
inhibition at 100 µM [3]: > 40%
inhibition at 100 µM [4]: < 20%
Activity [5]: inactive
Activity [6]: inactive
Activity [7]: 20%
inhibition [8]: inactive
inhibition at 100 µM [9]: < 20%
Activity [10]: 20%
Activity [11]: 20%
Activity [12]: >40%
inhibition at 100 µM [13]: 20%
Activity [14]: <20%
Activity [15]: <20%
Activity [16]: <20%
inhibition [17]: inactive
Activity [18]: <20%
inhibition at 100 µM [19]: 20%
inhibition at 100 µM [20]: < 20%
Activity [21]: inactive
inhibition at 100 µM [22]: < 20%
inhibition at 100 µM [23]: < 20%
Activity [24]: <20%
inhibition [25]: inactive
inhibition at 100 µM [26]: 20%
inhibition at 100 µM [27]: < 20%
inhibition at 100 µM [28]: < 20%
inhibition at 100 µM [29]: 20%
inhibition at 100 µM [30]: 20%
inhibition [31]: inactive
Activity [32]: <20%
Activity [33]: <20%
Activity [34]: <20%
Activity [35]: <20%
Activity [36]: <20%
inhibition [37]: inactive
Activity [38]: inactive
Activity [39]: inactive
inhibition at 100 µM [40]: < 20%
Activity [41]: 20%
inhibition at 100 µM [42]: < 20%

COC(=O)[C@@]1(C)CCC[C@]2(C)C3=CC(=O)OCC3=CC[C@@H]12
Activity [1]: 20%
inhibition at 100 µM [2]: 20%
inhibition [3]: inactive
inhibition [4]: inactive
Activity [5]: inactive
Activity [6]: inactive
Activity [7]: 20%
inhibition [8]: inactive
inhibition [9]: inactive
Activity [10]: 20%
Activity [11]: 20%
Activity [12]: inactive
inhibition at 100 µM [13]: 20%
Activity [14]: inactive
Activity [15]: 20%
Activity [16]: >40%
inhibition at 100 µM [17]: < 20%
Activity [18]: inactive
inhibition at 100 µM [19]: 20%
inhibition at 100 µM [20]: < 20%
Activity [21]: <20%
inhibition at 100 µM [22]: < 20%
inhibition [23]: inactive
Activity [24]: inactive
inhibition [25]: inactive
inhibition at 100 µM [26]: 20%
inhibition at 100 µM [27]: 20%
inhibition at 100 µM [28]: > 40%
inhibition at 100 µM [29]: < 20%
inhibition at 100 µM [30]: 20%
inhibition [31]: inactive
Activity [32]: <20%
Activity [33]: <20%
Activity [34]: <20%
Activity [35]: 20%
Activity [36]: inactive
inhibition [37]: inactive
Activity [38]: inactive
Activity [39]: inactive
inhibition at 100 µM [40]: < 20%
Activity [41]: <20%
inhibition [42]: inactive

COc1nc(C)nc(NC(=O)NS(=O)(=O)c2ccccc2OCCCl)n1 [LOGRAN]
Activity [1]: >40%
inhibition at 100 µM [2]: > 40%
inhibition at 100 µM [3]: > 40%
inhibition at 100 µM [4]: 20%
Activity [5]: >40%
Activity [6]: 20%
Activity [7]: >40%
inhibition at 100 µM ([8]; 120 h): 20%
inhibition at 100 µM [9]: > 40%
Activity [10]: >40%
Activity [11]: >40%
Activity [12]: >40%
inhibition at 100 µM [13]: > 40%
Activity [14]: 20%
Activity [15]: >40%
Activity [16]: >40%
inhibition at 100 µM [17]: > 40%
Activity [18]: 20%
inhibition at 100 µM [19]: > 40%
inhibition at 100 µM [20]: > 40%
Activity [21]: >40%
inhibition at 100 µM [22]: > 40%
inhibition at 100 µM [23]: 20%
Activity [24]: >40%
inhibition [25]: inactive
inhibition at 100 µM [26]: > 40%
inhibition at 100 µM [27]: < 20%
inhibition at 100 µM [28]: > 40%
inhibition at 100 µM [29]: 20%
inhibition at 100 µM [30]: > 40%
inhibition at 100 µM [31]: > 40%
Activity [32]: >40%
Activity [33]: >40%
Activity [34]: >40%
Activity [35]: <20%
Activity [36]: >40%
inhibition at 100 µM [37]: 20%
Activity [38]: inactive
Activity [39]: 20%
inhibition at 100 µM [40]: > 40%
Activity [41]: 20%
inhibition at 100 µM [42]: > 40%

COC(=O)[C@@]1(C)CCC[C@@]2(C)[C@H]1CC=C1COC(=O)C[C@@H]12
Activity [1]: <20%
inhibition at 100 µM [2]: < 20%
inhibition at 100 µM [3]: > 40%
inhibition [4]: inactive
Activity [5]: <20%
Activity [6]: inactive
Activity [7]: inactive
inhibition [8]: inactive
inhibition at 100 µM [9]: 20%
Activity [10]: inactive
Activity [11]: >40%
Activity [12]: >40%
inhibition at 100 µM [13]: > 40%
Activity [14]: <20%
Activity [15]: <20%
Activity [16]: 20%
inhibition at 100 µM [17]: < 20%
Activity [18]: inactive
inhibition [19]: inactive
inhibition at 100 µM [20]: < 20%
Activity [21]: <20%
inhibition at 100 µM [22]: < 20%
inhibition at 100 µM [23]: < 20%
Activity [24]: 20%
inhibition [25]: inactive
inhibition at 100 µM [26]: < 20%
inhibition at 100 µM [27]: < 20%
inhibition at 100 µM [28]: 20%
inhibition at 100 µM [29]: 20%
inhibition [30]: inactive
inhibition at 100 µM [31]: < 20%
Activity [32]: <20%
Activity [33]: <20%
Activity [34]: <20%
Activity [35]: <20%
Activity [36]: <20%
inhibition [37]: inactive
Activity [38]: inactive
Activity [39]: inactive
inhibition at 100 µM [40]: < 20%
Activity [41]: 20%
inhibition at 100 µM [42]: < 20%
